In patent US11364256B2, “Viral inhibition” (Monash University, priority 2020, dated 2022):
Where two headings read alike, the source gives them in different places.

Tests used:
[1] = tested on: seasonal coronavirus 229E; assay: Huh-7 cells infected with 229E, treated after infection, viral load by real-time PCR of supernatant; type: cell-based; settings: Huh-7, 229E MOI 0.01, 48 h post infection, read-out: IC50 (FIG. 6, panels A/B)
Method: Huh-7 cells were infected with 229E (MOI=0.01) for 2 h prior to addition of vehicle (DMSO), Ivermectin (FIG. 6, panel A) or Moxidectin (FIG. 6, panel B) at the indicated concentrations. Samples were taken 48 h post infection for quantitation of viral load using real-time PCR of supernatant. Results represent mean±SD (n=6) relative to DMSO alone.

SARS-CoV-2 = assay: Prophylactic pre-treatment of Vero/hSLAM cells before SARS-CoV-2 infection, viral load by real-time PCR of supernatant; type: cell-based
Method: Vero/hSLAM cells were pre-treated with DMSO, ivermectin or Moxidectin at the indicated concentrations for 2 h prior to infection with SARS-CoV-2 (MOI=0.01) for 2 h in the presence of DMSO or drugs. Samples were washed post-adsorption and incubated in the fresh media containing DMSO or drugs for 48 h before quantitation of viral load using real-time PCR of supernatant. The results shown in FIG. 5 represent mean±SD (n=6) relative to DMSO alone. […] Average IC50 values for CALU-3 cells compared to Vero/hSLAM cells assayed under the same conditions are shown (Table, right, n=independent experiments).

[2] = tested on: SARS-CoV-2 isolate Australia/VIC01/2020; assay: SARS-CoV-2 infected Vero/hSLAM cells treated after infection, viral RNA by real-time RT-PCR; type: cell-based
Vero/hSLAM cells = settings: for toxicity at any of the time points tested: sample wells or parallel drug alone samples, 5 μM
[3] = tested on: SARS-CoV-2 clinical isolate Australia/VIC01/2020; assay: SARS-CoV-2 infected CALU-3 (human lung) cells, viral load by real-time PCR of supernatant; type: cell-based
Method: CALU-3 (human lung) cells were infected with SARS-CoV-2 clinical isolate Australia/VIC01/2020 (MOI=0.01) for 2 h prior to addition of vehicle (DMSO) or Ivermectin at the indicated concentrations indicated in FIG. 3. Samples were taken 24 h post infection for quantitation of viral load using real-time PCR of supernatant. The results illustrated in FIG. 3 represent mean±SD (n=6) relative to DMSO alone.

[4] = tested on: seasonal coronavirus 229E; assay: Prophylactic pre-treatment of Huh-7 cells before 229E infection, viral load by real-time PCR; type: cell-based; settings: Huh-7 pre-treated 2 h, 229E MOI 0.01, 48 h; read-out: IC50 (FIG. 6, panel C), prophylactic
Method: For assessment of prophylactic potential Huh-7 cells were pre-treated with DMSO or ivermectin at the indicated concentrations for 2 h prior to infection with 229E (MOI=0.01) for 2 h in the presence of DMSO or ivermectin (FIG. 6, panel C). Samples (n=5) were washed post-adsorption and incubated in the fresh media containing DMSO or ivermectin for 48 h before quantitation of viral load as above.

[5] = 48 h, compared to vehicle DMSO, Vero/hSLAM, E gene, concentration not restated (5 μM in FIG. 2, panel A)
[6] = 5 μM, 24 h, MOI 0.1, Vero/hSLAM, compared to vehicle DMSO

CO/N=C1\C[C@]2(C[C@@H]3C[C@@H](C/C=C(\C)C[C@@H](C)/C=C/C=C4\CO[C@@H]5[C@H](O)C(C)=C[C@@H](C(=O)O3)[C@]45O)O2)O[C@H](/C(C)=C/C(C)C)[C@H]1C [moxidectin]
IC50 ([1]; Human coronavirus 229E): 0.24 µM
IC50 (SARS-CoV-2; Severe acute respiratory syndrome coronavirus 2, Vero, read-out: IC50 +/− SEM (n*), treated prophylactically): 1.66 µM
IC50 (SARS-CoV-2; Severe acute respiratory syndrome coronavirus 2, pre-treated 2 h, MOI 0.01, 48 h, supernatant, Vero/hSLAM, read-out: IC50 (FIG. 5), prophylactic): 1.8 µM
reduction in viral RNA present in the supernatant (released virions) [2, 5]: 99.9%
IC50 ([2]; Severe acute respiratory syndrome coronavirus 2, 24 h, supernatant, E gene, MOI 0.01, Vero/hSLAM, read-out: Calculated IC50 (FIG. 2, panel B)): 1.3 µM
IC50 ([2]; Severe acute respiratory syndrome coronavirus 2, 48 h, supernatant, E gene, MOI 0.01, Vero/hSLAM, read-out: Calculated IC50 (FIG. 2, panel C)): 1.3 µM
IC50 ([2]; Severe acute respiratory syndrome coronavirus 2, 72 h, supernatant, E gene, MOI 0.01, Vero/hSLAM, read-out: Calculated IC50 (FIG. 2, panel D)): 2.4 µM
toxicity at any of the time points tested (Vero/hSLAM cells): No toxicity

ivermectin
IC50 [1]: 0.18 µM
IC50 (SARS-CoV-2; average of independent experiments, Vero/hSLAM, read-out: IC50 +/− SEM (n*), treated prophylactically): 1.73 µM
IC50 (SARS-CoV-2; pre-treated 2 h, MOI 0.01, 48 h, supernatant, Vero/hSLAM, read-out: IC50 (FIG. 5), prophylactic): 1.6 µM
reduction in cell-associated viral RNA (unreleased and unpackaged virions) [2, 6]: 99.8%
reduction in viral RNA present in the supernatant (released virions) [2, 6]: 93%
reduction in viral RNA in both supernatant and cell pellets ([2]; 5 μM, 48 h, E gene, Vero/hSLAM): > 5000
reduction in viral RNA (equating to the >5000 reduction) ([2]; 5 μM, 48 h, supernatant and cell pellets, Vero/hSLAM): 99.98%
further reduction in viral RNA at 72 h ([2]; 5 μM, 72 h versus 48 h, MOI 0.1, Vero/hSLAM): no further reduction
IC50 ([2]; 24 h, supernatant, E gene, MOI 0.01, Vero/hSLAM, read-out: Calculated IC50 (FIG. 2, panel B)): 1.4 µM
reduction in viral RNA present in the supernatant (released virions) [2, 5]: 99.5%
IC50 ([2]; 48 h, supernatant, E gene, MOI 0.01, Vero/hSLAM, read-out: Calculated IC50 (FIG. 2, panel C)): 2.2 µM
IC50 ([2]; 72 h, supernatant, E gene, MOI 0.01, Vero/hSLAM, read-out: Calculated IC50 (FIG. 2, panel D)): 3.1 µM
IC50 ([2]; E gene, 48 h, treated 2 h post infection, MOI 0.1, Vero/hSLAM, panels C/D = supernatant and cell pellets, read-out: IC50 of ivermectin treatment (FIG. 1, panel C)): 2.8 µM
IC50 ([2]; E gene, 48 h, treated 2 h post infection, MOI 0.1, Vero/hSLAM, panels C/D = supernatant and cell pellets, read-out: IC50 of ivermectin treatment (FIG. 1, panel D)): 2.4 µM
IC50 ([2]; RdRp gene primers, 48 h, MOI 0.1, Vero/hSLAM, panels E/F = released (supernatant) and cell-associated virus, read-out: IC50 of ivermectin treatment (FIG. 1, panel E)): 2.5 µM
IC50 ([2]; RdRp gene primers, 48 h, MOI 0.1, Vero/hSLAM, panels E/F = released (supernatant) and cell-associated virus, read-out: IC50 of ivermectin treatment (FIG. 1, panel F)): 2.2 µM
IC50 ([2]; average of independent experiments, Vero/hSLAM assayed under the same conditions as CALU-3, read-out: IC50 +/− SEM (n*), Vero/hSLAM): 2.37 µM
toxicity at any of the time points tested (Vero/hSLAM cells): No toxicity
toxicity at any of the concentrations tested (Vero/hSLAM cells; serial dilutions, 48 h): no toxicity
IC50 ([3]; CALU-3, 24 h post infection, supernatant, MOI 0.01, read-out: IC50 (FIG. 3)): 0.42 µM
IC50 ([3]; average of independent experiments, CALU-3, read-out: IC50 +/− SEM (n*), CALU-3): 0.41 µM
IC50 [4]: 2.06 µM
